Assay [1] relates to rats. Kind of assay: effect on spontaneous behavior of rats after ip injection (induction of sleep). The following applies: for sleep-inducing pharmacological effect compared with cis-9,10-octadecenoamide: rats, ip. It counts as in vivo, rat. The method, then: Synthetic cis-9,10-octadecenoamide was injected (ip) into rats in order to test its effect on spontaneous behavior at different doses: 1 (n=2), 2 (n=2), 5 (n=7), 10 (n=10), 20 (n=2), and 50 (n=2) mg, where n = number of rats tested. […] However, at a threshold of 5 mg and above there was a marked effect consisting of an induction of long-lasting motor quiescence associated with eyes closed, sedated behavior characteristic of normal sleep. Also as with normal sleep, the rats still responded to auditory stimuli with orienting reflex and sustained attention toward the source of stimulation. In addition, motor behavior was impaired. The latency to behavioral sedation following administration was about 4 minutes and subjects were normally active again after 1 hour (5 mg), 2 hour (10 mg), or 2.5 hour (20 mg and 50 mg).
We have compared cis-9,10-octadecenoamide to vehicle and the synthetic analogs listed in FIG. 1 to estimate the structural specificity of its sleep-inducing potential. […] More particularly, male Sprague-Dawley rats (300 g at the time of surgery) were implanted under halothane anesthesia (2-3%) with a standard set of electrodes for sleep recordings. This included two screw electrodes placed in the parietal bone over the hippocampus to record the subjects electroencephalogram (EEG) and two wire electrodes inserted in the neck musculature to record postural tone through electromyographic activity (EMG). Rats were housed individually with at libitum access to food and water. The dark-light cycle was controlled (12:12, lights on a 10:00 p.m.). One week after the surgery, rats were habituated to the recording conditions for at least three days. Upon the completion of the habituation period, rats received 2 milliliter (ip) of either: vehicle (5% ethanol/saline solution), cis-9,10-octadecenoamide (10 mg), or oleic acid (10 mg). […] Sleep recordings were visually scored and four stages were determined: wakefulness, slow-wave-sleep 1 (SWS1), slow-wave-sleep 2 (SWS2), and rapid eye movement (REM) sleep.

In assay [2] the target is T1, FAAH activity of a rat brain membrane fraction (Rattus norvegicus, UniProt P97612).
T1 construct: Cis-9,10-octadecenoamide with rat brain membrane fraction +1 mM phenylmethylsulfonyl fluoride (PMSF); from tissue; host or cells: rat brain membrane fraction
T1 sequence (P97612 1-579): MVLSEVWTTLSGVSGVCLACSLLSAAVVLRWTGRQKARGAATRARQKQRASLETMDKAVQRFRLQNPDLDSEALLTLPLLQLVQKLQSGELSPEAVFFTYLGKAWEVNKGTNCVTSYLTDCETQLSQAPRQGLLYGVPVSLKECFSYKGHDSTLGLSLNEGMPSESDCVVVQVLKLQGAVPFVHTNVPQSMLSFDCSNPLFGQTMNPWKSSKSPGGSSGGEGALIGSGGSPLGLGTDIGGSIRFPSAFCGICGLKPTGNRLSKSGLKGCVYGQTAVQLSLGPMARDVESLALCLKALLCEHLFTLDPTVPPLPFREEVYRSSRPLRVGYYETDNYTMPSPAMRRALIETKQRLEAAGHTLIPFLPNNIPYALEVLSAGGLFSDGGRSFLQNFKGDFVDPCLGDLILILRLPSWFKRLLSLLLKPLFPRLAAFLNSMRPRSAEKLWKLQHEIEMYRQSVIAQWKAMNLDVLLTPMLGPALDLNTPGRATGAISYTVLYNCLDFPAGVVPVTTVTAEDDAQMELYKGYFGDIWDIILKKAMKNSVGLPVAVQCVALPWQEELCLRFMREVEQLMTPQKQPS
It counts as biochemical. The settings on record: for inhibition of cis-9,10-octadecenoamide hydrolysis (lipid amidase) activity: 1 mM. The method, then: In each case the enzymic reaction is performed is a separate reaction vessel and the product is spotted onto a TLC plate.

Assay [3] concerns the target T2, recombinant expressed rat FAAH (Rattus norvegicus, UniProt P97612).
T2 construct: expressed in transfected cells; host or cells: COS-7 cells, transient, pcDNA3; dounce-homogenised cell extract
T2 sequence (P97612 1-579): T1 sequence (P97612 1-579)
In words: FAAH hydrolysis assays with 14C-labeled fatty acid amide substrates (TLC, scintillation counting). It counts as biochemical. The settings on record: for Rate of Hydrolysis: 35 μg transfected COS-7 cell protein, 5 minutes, 37° C. The procedure: Therefore, COS-7 cells transfected with the rat FAAH cDNA were assayed for anandamide hydrolase activity. To assess the enzymatic activity of the expressed recombinant fatty acid amide hydrolases of this invention on labeled anandamide, the following enzymatic assay was performed. ^14C-anandamide was synthesized as follows: 12.5 μCi (specific activity of 50 μCi/μM) of ^14C arachidonic acid (Moravek Biochemicals) was dissolved in 100 μl CH2Cl2, cooled to 0° C., and treated with excess oxalyl chloride. The reaction mixture was stirred at 25° C. for 6 hours, after which time the solvent was evaporated. The remaining residue was cooled to 0° C., treated with a large excess of ethanolamine, and stirred at 25° C. for 15 minutes. The reaction mixture was then partitioned between ethyl acetate and 2 M HCl, and the organic layer was washed with water and then evaporated to dryness. The resulting ^14C-anandamide was diluted with unlabeled anandamide to a final specific activity of 5 μCi/μM in ethanol. Approximately 1 μCi of ^14C-anandamide and 20 μl of dounce homogenized COS-7 cell extract were used for each anandamide hydrolase assay as detailed above for the oleamide hydrolase assays. Briefly, FAAH hydrolysis assays were conducted in triplicate with 100 μM substrate, 35 μg of rat transfected COS-7 cell protein for 5 minutes at 37° C. (except in the case of stearic amide, where due to low solubility, 20 μM substrate comparison to oleamide were conducted). Products were separated on TLC as described previously, scraped into scintillation fluid, and radioactivity was quantitated by scintillation counting. Substrate hydrolysis in the presence of equal amounts of untransfected COS-7 cell protein extract served as background control in all cases and was substracted from FAAH hydrolysis rates to give the data as presented below.
To further assess the substrate specificity spectrum of enyzmatic hydolytic activity of the recombinant expressed proteins of this invention, other ^14C-labeled fatty acid amides were synthesized as described in Section B6 and above for ^14C-oleamide, with the exception of anandamide as described.
Where indicated in the table the anandamide and oleamide hydrolysis rates are considered to be 100% of FAAH activity to which other fatty acid amide hydrolysis rates are compared.

The test system of assay [4] is amidase activity which catalyzes both the hydrolysis and synthesis of arachidonylethanolamide (anandamide). The settings on record: cited from earlier work.

Read-outs that look alike come from different tables or passages of the source. Where a SMILES comes first, the peptide text is derived from it. [ ]: non-standard residue; d: D form. The star is where a group is joined. Sta = CC(C)C[C@H](N)[C@@H](O)CC(=O)O; Isovaleryl = CC(C)CC(=O)*

Consider `CCCCCCCCC/C=C\CCCCCCC(N)=O` [Compound 3, Cis-8,9-octadecenoamide], for which the “sleep-inducing pharmacological effect compared with cis-9,10-octadecenoamide” value in assay [1] is “substantial reduction in both the degree and duration of the pharmacological effects”.

In the case of `CCCCCC/C=C\CCCCCCCCCC(N)=O` [Compound 4, Cis-11,12-octadecenoamide], in assay [1], the “sleep-inducing pharmacological effect compared with cis-9,10-octadecenoamide” value is “substantial reduction in both the degree and duration of the pharmacological effects”.

Take `CCCCCCCC/C=C\CCCCCCCCCCCC(N)=O` [Compound 6, Erucamide]: in assay [1], the “sleep-inducing pharmacological effect compared with cis-9,10-octadecenoamide” value is “substantial reduction in both the degree and duration of the pharmacological effects”.

For the molecule `[Cl][Hg][Cl]` [HgCl2, mercuric chloride], the “inhibition of lipid amidase activity” value in assay [2] (50 mM) is given as “inhibited”.

`CCCCCCCCCCCCCC(N)=O` [Myristic Amide, myristic amide]: in assay [3] (100 μM substrate), the “% of FAAH activity (anandamide hydrolysis rate = 100%)” value is 24.3% and the “Rate of Hydrolysis” value is 81 ± 7 nmol/min/mg.

Regarding `O=S(=O)(F)Cc1ccccc1` [PMSF, phenylmethylsulfonyl fluoride], the “inhibition of cis-9,10-octadecenoamide hydrolysis (lipid amidase) activity” value is “inhibited” in assay [2] and “completely inhibited” in assay [2] (listed as phenylmethylsulfonyl fluoride). The “inhibition of the amidase activity” value in assay [4] (1.5 mM concentration) is reported as “completely inhibited”.

On to `CCCCCCCCCCCCCCCC(N)=O` [Palmitic Amide, palmitic amide], for which, in assay [3] (100 μM substrate), the “% of FAAH activity (anandamide hydrolysis rate = 100%)” value is 9.9% and the “Rate of Hydrolysis” value worked out at 33 ± 2 nmol/min/mg.

`CCCCCCCCCCCCCCCCCC(N)=O` [Stearic Amide, stearic amide]: in assay [3] (20 μM substrate), the “% of FAAH activity (oleamide hydrolysis rate = 100%)” value was determined as 5.8% and the “Rate of Hydrolysis” value was found to be 2.3 ± 1 nmol/min/mg.

In the case of `CCCCCCCC/C=C/CCCCCCCC(N)=O` [Trans-9,10-octadecenoamide], the “duration of the biological (sleep-inducing) effect” value in assay [1] (10 mg per rat) is “one hour”. Also, in assay [1], the “sleep-inducing pharmacological effect compared with cis-9,10-octadecenoamide” value is reported as “much less potent”.

With `N=C(N)c1ccccc1` [benzamidine], the “effect of other inhibitors on the amidase activity” value (shortened to “effect of other inhibitors”) in assay [4] is given as “little or no effect”.

Take `CC(C)C[C@H](NC(=O)[C@@H](NC(=O)N[C@@H](Cc1ccccc1)C(=O)O)[C@@H]1CCN=C(N)N1)C(=O)N[C@H](C=O)Cc1ccccc1` [chymostatin]: the “effect of other inhibitors” value in assay [4] is on record as “little or no effect”.

For `CC(=O)N[C@@H](CC(C)C)C(=O)N[C@@H](CC(C)C)C(=O)N[C@H](C=O)CCCNC(=N)N` [leupeptin], the “effect of other inhibitors” value in assay [4] is given as “little or no effect”.

Turning to `CCCCCCCC/C=C\CCCCCCCC(=O)O` [oleic acid, Oleic Acid], the “sleep-inducing pharmacological effect compared with cis-9,10-octadecenoamide” value in assay [1] was “nor oleic acid (5) showed any overt behavioral effect”.

As to `CC(C)CC(=O)N[C@H](C(=O)N[C@H](C(=O)N[C@@H](CC(C)C)[C@@H](O)CC(=O)N[C@@H](C)C(=O)N[C@@H](CC(C)C)[C@@H](O)CC(=O)O)C(C)C)C(C)C` [pepstatin] (Isovaleryl-VV[Sta]A[Sta]-OH), in assay [4], the “effect of other inhibitors” value is listed as “little or no effect”.

On to aprotinin, for which, in assay [4], the “effect of other inhibitors” value was “little or no effect”.

(Values after patent publication US6699682B2, “Assay for inhibitors of fatty-acid amide hydrolase” (The Scripps Research Institute, priority 1995, dated 2004).)
